In patent US20240016938A1, “METHODS FOR INCREASING THE BIOAVAILABILITY OF NUCLEOSIDE MEDICINAL AGENTS” (ZOGENIX MDS, INC., priority 2022, published 2024):
Where two headings read alike, the source gives them in different places.

Experiment: Phase 1 open-label, fixed-sequence, single-ascending dose and food-effect PK study of MT1621 in adult healthy subjects
Type: in vivo, human
Conditions: for half-life: read-out: t½ (converted)
Protocol: A phase 1 study was conducted as an open-label, fixed-sequence, single-ascending dose study in adult healthy subjects designed to evaluate the safety, tolerability, PK, and food-effect of MT1621 (dC and dT). To evaluate the PK of MT1621, the combination was administered at three different doses. Treatment A was a 43.3 mg/kg dose of MT1621 (i.e., a 43.3 mg/kg dose of dC and a 43.3 mg/kg dose of dT (each approximately equivalent to 1 dose of a 130 mg/kg daily dose, divided 3 times daily [TID])) in healthy male and female subjects under fasting conditions; Treatment B was an 86.7 mg/kg dose of MT1621 (i.e., a 86.7 mg/kg dose of dC and a 86.7 mg/kg dose of dT (each approximately equivalent to 1 dose of a 260 mg/kg daily dose, divided TID)) in healthy male and female subjects under fasting conditions; and Treatment C was a 133.3 mg/kg dose of MT1621 (i.e., a 133.3 mg/kg dose of dC and a 133.3 mg/kg dose of dT (each approximately equivalent to a 400 mg/kg daily dose, divided TID)) in healthy male and female subjects under fasting conditions. Additionally, Treatment D was a 133.3 mg/kg dose of MT1621 (i.e., a 133.3 mg/kg dose of dC and a 133.3 mg/kg dose of dT (each approximately equivalent to a 400 mg/kg daily dose, divided TID) in healthy male and female subjects under fed conditions, to determine the effect of a high-fat meal on the single-dose PK of MT1621.
Methodology of open-label, Phase 1, fixed-sequence, single-dose, dose escalation, and food-effect study. Fourteen (14) healthy, adult, male and female subjects were enrolled with an approximately equal distribution (at least 40% of each sex) between male and female subjects.
On Day 1 of each period, subjects received 1 of 3 dose levels of MT1621 under fasting conditions as escalating single doses over 3 periods in Part A (Treatments A, B, and C in Periods 1, 2, and 3, respectively) and with the highest dose under fed conditions in Part B (Treatment D in Period 4). Four (4) of 14 subjects that completed Part A (Periods 1 to 3) could not complete Part B (Treatment D in Period 4) during the original confinement. These subjects were then to return to the clinical unit and continue the study to complete Part B (Treatment D in Period 4); 2 of the 4 subjects completed Part B.
Each treatment was assessed by blood and urine PK sampling pre-dose and up to 48 hours post-dose for the determination of dC and dT in plasma and urine PK, and possible future analysis of blood for PD biomarkers.
A washout period of at least 2 days without drug between each treatment administration was maintained. Fourteen subjects were enrolled in the study, and 12 subjects completed the study. Data from 14 subjects were included in the PK analysis of Periods 1, 2, and 3 and data from 12 subjects were included in the PK analysis of Period 4.
Study drug administered in Example 1 was 0.5 g dC and 0.5 g dT powders for solution and were reconstituted in juice or water.
After reconstitution in a fixed amount of water or juice, the solution was administered via measured volume to provide the amounts specified in Studies A, B, C, and D.
MT1621 was administered orally at Hour 0 on Day 1, following an overnight fast for Treatments A, B, and C and within 5 minutes of consumption of a standardized high-fat breakfast (which included eggs, bacon, and toast with butter) for Treatment D.
Blood samples for the determination of plasma dC and dT concentrations were collected on Day 1 of each period at pre-dose (0 hour), and at 0.25, 0.5, 1, 1.5, 2, 3, 4, 5, 6, 8, 12, 24, and 48 after study drug administration. In Period 4, blood was collected for the 48-hour PK sample; for Periods 1 through 3, the 48-hour PK sample was collected at the same time as the pre-dose PK sample from the next period so only 1 sample was collected for both PK time points. It should be pointed out that Periods 1-3 used sampling up to 24 hours for PK while Period 4 used the complete 48-hour profile. […]

[1] = 100*(test/reference): 133.3 mg/kg MT1621 fed vs fasted, baseline-adjusted plasma
[2] = Treatment A: single 43.3 mg/kg MT1621, fasted, baseline-adjusted plasma, arithmetic mean ± SD
[3] = Treatment B: single 86.7 mg/kg MT1621, fasted, baseline-adjusted plasma, arithmetic mean ± SD
[4] = Treatment C: single 133.3 mg/kg MT1621, fasted, baseline-adjusted plasma, arithmetic mean ± SD
[5] = Treatment D: single 133.3 mg/kg MT1621, fed (high-fat breakfast), baseline-adjusted plasma, arithmetic mean ± SD
[6] = across the 3 fasted dose levels (Treatments A, B, C), plasma

increase in baseline adjusted AUC, fed compared to fasted (133.3 mg/kg MT1621, plasma): 74%
increase in baseline adjusted Cmax, fed compared to fasted (133.3 mg/kg MT1621, plasma): 27%
AUC0-t GMR (%) [1]: 174.38%
Cmax GMR (%) [1]: 127.39%
AUC%extrap [2]: 46.24 NC %
Kel [2]: 0.1569 NC 1/hr
AUC%extrap [3]: 6.481 ± 5.9830%
Kel [3]: 0.0932 ± 0.07205 h⁻¹
AUC%extrap [4]: 1.954 ± 1.6169%
Kel [4]: 0.09785 ± 0.06094 h⁻¹
AUC%extrap [5]: 1.244 ± 1.1349%
Kel [5]: 0.2445 ± 0.2863 h⁻¹
Vd/F (both sexes, human, oral, Treatment D: single 133.3 mg/kg MT1621, fed (high-fat breakfast), baseline-adjusted plasma, arithmetic mean ± SD, read-out: Vz/F): 6220 ± 2880 L/kg
half-life (both sexes, human, plasma, oral, 43.3 mg/kg, Treatment A: single 43.3 mg/kg MT1621, fasted, baseline-adjusted plasma, arithmetic mean ± SD): 4.42 h
AUC(0-inf) (both sexes, human, plasma, oral, 43.3 mg/kg, Treatment A: single 43.3 mg/kg MT1621, fasted, baseline-adjusted plasma, geometric mean (geometric CV %)): 3.56 ng·h/mL
AUC(0-t) (both sexes, human, plasma, oral, 43.3 mg/kg, Treatment A: single 43.3 mg/kg MT1621, fasted, baseline-adjusted plasma, geometric mean (geometric CV %), read-out: AUC0-4): 8.78 ng·h/mL
AUC(0-t) (both sexes, human, plasma, oral, 43.3 mg/kg, Treatment A: single 43.3 mg/kg MT1621, fasted, baseline-adjusted plasma, geometric mean (geometric CV %), read-out: AUC0-6): 11.1 ng·h/mL
AUC(0-t) (both sexes, human, plasma, oral, 43.3 mg/kg, Treatment A: single 43.3 mg/kg MT1621, fasted, baseline-adjusted plasma, geometric mean (geometric CV %), read-out: AUC0-48): 18.2 ng·h/mL
AUC(0-t) (both sexes, human, plasma, oral, 43.3 mg/kg, Treatment A: single 43.3 mg/kg MT1621, fasted, baseline-adjusted plasma, geometric mean (geometric CV %), read-out: AUC0-t): 12.6 ng·h/mL
Cmax (both sexes, human, plasma, oral, 43.3 mg/kg, Treatment A: single 43.3 mg/kg MT1621, fasted, baseline-adjusted plasma, geometric mean (geometric CV %), read-out: Cmax): 6.19 ng/mL
Tmax (both sexes, human, plasma, oral, 43.3 mg/kg, Treatment A: single 43.3 mg/kg MT1621, fasted, baseline-adjusted plasma, median (minimum, maximum), read-out: Tmax): 0.516 h
half-life (both sexes, human, plasma, oral, 86.7 mg/kg, Treatment B: single 86.7 mg/kg MT1621, fasted, baseline-adjusted plasma, arithmetic mean ± SD): 10.4 ± 5.95 h
AUC(0-inf) (both sexes, human, plasma, oral, 86.7 mg/kg, Treatment B: single 86.7 mg/kg MT1621, fasted, baseline-adjusted plasma, geometric mean (geometric CV %)): 67.2 ng·h/mL
AUC(0-t) (both sexes, human, plasma, oral, 86.7 mg/kg, Treatment B: single 86.7 mg/kg MT1621, fasted, baseline-adjusted plasma, geometric mean (geometric CV %), read-out: AUC0-4): 21 ng·h/mL
AUC(0-t) (both sexes, human, plasma, oral, 86.7 mg/kg, Treatment B: single 86.7 mg/kg MT1621, fasted, baseline-adjusted plasma, geometric mean (geometric CV %), read-out: AUC0-6): 23.1 ng·h/mL
AUC(0-t) (both sexes, human, plasma, oral, 86.7 mg/kg, Treatment B: single 86.7 mg/kg MT1621, fasted, baseline-adjusted plasma, geometric mean (geometric CV %), read-out: AUC0-48): 82.1 ng·h/mL
AUC(0-t) (both sexes, human, plasma, oral, 86.7 mg/kg, Treatment B: single 86.7 mg/kg MT1621, fasted, baseline-adjusted plasma, geometric mean (geometric CV %), read-out: AUC0-t): 31.7 ng·h/mL
Cmax (both sexes, human, plasma, oral, 86.7 mg/kg, Treatment B: single 86.7 mg/kg MT1621, fasted, baseline-adjusted plasma, geometric mean (geometric CV %), read-out: Cmax): 14.2 ng/mL
Tmax (both sexes, human, plasma, oral, 86.7 mg/kg, Treatment B: single 86.7 mg/kg MT1621, fasted, baseline-adjusted plasma, median (minimum, maximum), read-out: Tmax): 1.06 h
AUC(0-t) (both sexes, human, plasma, oral, 133.3 mg/kg, Treatment C, fasted, baseline-adjusted plasma, ANOVA on ln-transformed data, read-out: AUC0-t Geometric LSM, 133.3 mg/kg MT1621, Fasted (Reference)): 91.2 ng·h/mL
Cmax (both sexes, human, plasma, oral, 133.3 mg/kg, Treatment C, fasted, baseline-adjusted plasma, ANOVA on ln-transformed data, read-out: Cmax Geometric LSM, 133.3 mg/kg MT1621, Fasted (Reference)): 31.5 ng/mL
half-life (both sexes, human, plasma, oral, 133.3 mg/kg, Treatment C: single 133.3 mg/kg MT1621, fasted, baseline-adjusted plasma, arithmetic mean ± SD): 8.76 ± 4.04 h
AUC(0-inf) (both sexes, human, plasma, oral, 133.3 mg/kg, Treatment C: single 133.3 mg/kg MT1621, fasted, baseline-adjusted plasma, geometric mean (geometric CV %)): 144 ng·h/mL
AUC(0-t) (both sexes, human, plasma, oral, 133.3 mg/kg, Treatment C: single 133.3 mg/kg MT1621, fasted, baseline-adjusted plasma, geometric mean (geometric CV %), read-out: AUC0-4): 53.1 ng·h/mL
AUC(0-t) (both sexes, human, plasma, oral, 133.3 mg/kg, Treatment C: single 133.3 mg/kg MT1621, fasted, baseline-adjusted plasma, geometric mean (geometric CV %), read-out: AUC0-6): 60.6 ng·h/mL
AUC(0-t) (both sexes, human, plasma, oral, 133.3 mg/kg, Treatment C: single 133.3 mg/kg MT1621, fasted, baseline-adjusted plasma, geometric mean (geometric CV %), read-out: AUC0-48): 114 ng·h/mL
AUC(0-t) (both sexes, human, plasma, oral, 133.3 mg/kg, Treatment C: single 133.3 mg/kg MT1621, fasted, baseline-adjusted plasma, geometric mean (geometric CV %), read-out: AUC0-t): 91.2 ng·h/mL
Cmax (both sexes, human, plasma, oral, 133.3 mg/kg, Treatment C: single 133.3 mg/kg MT1621, fasted, baseline-adjusted plasma, geometric mean (geometric CV %), read-out: Cmax): 31.5 ng/mL
Tmax (both sexes, human, plasma, oral, 133.3 mg/kg, Treatment C: single 133.3 mg/kg MT1621, fasted, baseline-adjusted plasma, median (minimum, maximum), read-out: Tmax): 1.25 h
AUC(0-t) (both sexes, human, plasma, oral, 133.3 mg/kg, Treatment D, fed, baseline-adjusted plasma, ANOVA on ln-transformed data, read-out: AUC0-t Geometric LSM, 133.3 mg/kg MT1621, Fed (Test)): 159 ng·h/mL
Cmax (both sexes, human, plasma, oral, 133.3 mg/kg, Treatment D, fed, baseline-adjusted plasma, ANOVA on ln-transformed data, read-out: Cmax Geometric LSM, 133.3 mg/kg MT1621, Fed (Test)): 40.1 ng/mL
half-life (both sexes, human, plasma, oral, 133.3 mg/kg, Treatment D: single 133.3 mg/kg MT1621, fed (high-fat breakfast), baseline-adjusted plasma, arithmetic mean ± SD): 5.35 ± 3.11 h
AUC(0-inf) (both sexes, human, plasma, oral, 133.3 mg/kg, Treatment D: single 133.3 mg/kg MT1621, fed (high-fat breakfast), baseline-adjusted plasma, geometric mean (geometric CV %)): 149 ng·h/mL
AUC(0-t) (both sexes, human, plasma, oral, 133.3 mg/kg, Treatment D: single 133.3 mg/kg MT1621, fed (high-fat breakfast), baseline-adjusted plasma, geometric mean (geometric CV %), read-out: AUC0-4): 74.4 ng·h/mL
AUC(0-t) (both sexes, human, plasma, oral, 133.3 mg/kg, Treatment D: single 133.3 mg/kg MT1621, fed (high-fat breakfast), baseline-adjusted plasma, geometric mean (geometric CV %), read-out: AUC0-6): 119 ng·h/mL
AUC(0-t) (both sexes, human, plasma, oral, 133.3 mg/kg, Treatment D: single 133.3 mg/kg MT1621, fed (high-fat breakfast), baseline-adjusted plasma, geometric mean (geometric CV %), read-out: AUC0-48): 141 ng·h/mL
AUC(0-t) (both sexes, human, plasma, oral, 133.3 mg/kg, Treatment D: single 133.3 mg/kg MT1621, fed (high-fat breakfast), baseline-adjusted plasma, geometric mean (geometric CV %), read-out: AUC0-t): 159 ng·h/mL
Cmax (both sexes, human, plasma, oral, 133.3 mg/kg, Treatment D: single 133.3 mg/kg MT1621, fed (high-fat breakfast), baseline-adjusted plasma, geometric mean (geometric CV %), read-out: Cmax): 40.1 ng/mL
Tmax (both sexes, human, plasma, oral, 133.3 mg/kg, Treatment D: single 133.3 mg/kg MT1621, fed (high-fat breakfast), baseline-adjusted plasma, median (minimum, maximum), read-out: Tmax): 4 h
Tmax (both sexes, human, plasma, oral, under fasted conditions, read-out: median Tmax): 1 h
Tmax (both sexes, human, plasma, oral, under fed conditions, read-out: median Tmax): 3 h
plasma exposure compared to endogenous (baseline) concentrations (following MT1621, all 3 dose levels): consistently higher
SMILES: Cc1cn([C@H]2C[C@H](O)[C@@H](CO)O2)c(=O)[nH]c1=O [dT, β-D-2′-deoxythymidine]
dose proportionality of AUC (total extent of exposure, AUC0-t and AUC0-inf) [6]: neither AUC nor Cmax was dose proportional
dose proportionality of Cmax [6]: neither AUC nor Cmax was dose proportional
